Data from PubChem BioAssay AID256 (DTP/NCI, 2004).
Values joined by “and” are separate entries in the source; they are usually repeats but may differ in a detail not shown here. Identical values can stand only once. Toxic doses and inconclusive results are not listed. The calls were made as follows: active = survival T/C of 150% or more; inactive = T/C below 125% in these data.

Test system: CD2F1 mice, L1210 leukemia ip, survival T/C
Test: NCI In Vivo Anticancer Drug Screen. Data for tumor model L1210 Leukemia (intraperitoneal) in CD2F1 (CDF1) mice
Settings: higher = longer survival
In short: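 Ratio T/C, where T is the treated-group value and C the vehicle-dosed control value, from mice implanted with a transplantable tumor.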

[1] = endpoint: mean survival time, dose: 6.25 mg/kg/injection, schedule: Q04DX002 (ip), vehicle: saline with Tween-80
[2] = endpoint: mean survival time, dose: 12.5 mg/kg/injection, schedule: Q04DX002 (ip), vehicle: saline with Tween-80
[3] = endpoint: mean survival time, dose: 25.0 mg/kg/injection, schedule: Q04DX002 (ip), vehicle: saline with Tween-80
[4] = endpoint: mean survival time, dose: 100.0 mg/kg/injection, schedule: Q04DX003 (ip), vehicle: saline with Tween-80
[5] = endpoint: mean survival time, dose: 200.0 mg/kg/injection, schedule: Q04DX003 (ip), vehicle: saline with Tween-80
[6] = endpoint: mean survival time, dose: 400.0 mg/kg/injection, schedule: Q04DX003 (ip), vehicle: saline with Tween-80
[7] = endpoint: mean survival time, dose: 50.0 mg/kg/injection, schedule: Q01DX009 (ip), vehicle: saline with Tween-80
[8] = endpoint: mean survival time, dose: 100.0 mg/kg/injection, schedule: Q01DX009 (ip), vehicle: saline with Tween-80
[9] = endpoint: mean survival time, dose: 200.0 mg/kg/injection, schedule: Q01DX009 (ip), vehicle: saline with Tween-80
[10] = endpoint: mean survival time, dose: 100.0 mg/kg/injection, schedule: Q04DX002 (ip), vehicle: saline with Tween-80
[11] = endpoint: mean survival time, dose: 200.0 mg/kg/injection, schedule: Q04DX002 (ip), vehicle: saline with Tween-80
[12] = endpoint: mean survival time, dose: 400.0 mg/kg/injection, schedule: Q04DX002 (ip), vehicle: saline with Tween-80

Measured: T/C

CC1(OO)OOC(=O)C1(C)C (stereo not drawn)
inactive: [1] 90 % of control | [2] 93 % of control | [3] 96 % of control

Cc1cc(Cl)ccc1NC(=O)Nc1c(Oc2ccc(Cl)cc2)ccc(Cl)c1S(=O)(=O)O
inactive: endpoint: mean survival time, dose: 100.0 mg/kg/injection, schedule: Q01DX001 (ip), vehicle: saline 96 % of control | endpoint: mean survival time, dose: 200.0 mg/kg/injection, schedule: Q01DX001 (ip), vehicle: saline 98 % of control

CCCCCCCCCCCCCCCC[N+](C)(C)CC#CCCl
inactive: [1] 96 % of control | [2] 88 % of control | [3] 88 % of control

O=C(O)/C=N/NS(=O)(=O)c1ccc2ccccc2c1
inactive: endpoint: mean survival time, dose: 12.5 mg/kg/injection, schedule: Q04DX003 (ip), vehicle: other 114 % of control | endpoint: mean survival time, dose: 25.0 mg/kg/injection, schedule: Q04DX003 (ip), vehicle: other 119 % of control | endpoint: mean survival time, dose: 50.0 mg/kg/injection, schedule: Q04DX003 (ip), vehicle: other 119 % of control | endpoint: mean survival time, dose: 100.0 mg/kg/injection, schedule: Q04DX003 (ip), vehicle: other 110 % of control | endpoint: mean survival time, dose: 200.0 mg/kg/injection, schedule: Q04DX003 (ip), vehicle: other 103 % of control

C1CCC2OCCOCCOC3CCCCC3OCCOCCOC2C1 (stereo not drawn)
inactive: endpoint: mean survival time, dose: 3.12 mg/kg/injection, schedule: Q01DX009 (ip), vehicle: Klucel (hydroxypropylcellulose) (HPC) 108 % of control | endpoint: mean survival time, dose: 6.25 mg/kg/injection, schedule: Q01DX009 (ip), vehicle: Klucel (hydroxypropylcellulose) (HPC) 98 % of control and 103 % of control | endpoint: mean survival time, dose: 12.5 mg/kg/injection, schedule: Q01DX009 (ip), vehicle: Klucel (hydroxypropylcellulose) (HPC) 87 % of control and 100 % of control | endpoint: mean survival time, dose: 25.0 mg/kg/injection, schedule: Q01DX009 (ip), vehicle: Klucel (hydroxypropylcellulose) (HPC) 102 % of control and 103 % of control | endpoint: mean survival time, dose: 50.0 mg/kg/injection, schedule: Q01DX009 (ip), vehicle: Klucel (hydroxypropylcellulose) (HPC) 100 % of control and 104 % of control | endpoint: mean survival time, dose: 100.0 mg/kg/injection, schedule: Q01DX009 (ip), vehicle: Klucel (hydroxypropylcellulose) (HPC) 91 % of control

O=C(CCC(NC(=O)OCc1ccccc1)C(=O)O)OCc1ccccc1 (stereo not drawn)
inactive: [4] 100 % of control | [5] 101 % of control | [6] 94 % of control

CCCCCCCCCCCCCCCC(=O)NCCNC(=O)CCCCCCCCCCCCCCC
inactive: [7] 92 % of control | endpoint: mean survival time, dose: 75.0 mg/kg/injection, schedule: Q01DX001 (ip), vehicle: saline 98 % of control | [8] 90 % of control | endpoint: mean survival time, dose: 150.0 mg/kg/injection, schedule: Q01DX001 (ip), vehicle: saline 93 % of control | [9] 94 % of control | endpoint: mean survival time, dose: 300.0 mg/kg/injection, schedule: Q01DX001 (ip), vehicle: saline 98 % of control

Cc1cc2[nH]cnc2cc1Cl
inactive: endpoint: mean survival time, dose: 50.0 mg/kg/injection, schedule: Q01DX009 (ip), vehicle: saline 98 % of control | endpoint: mean survival time, dose: 100.0 mg/kg/injection, schedule: Q01DX009 (ip), vehicle: saline 106 % of control

CCCCCCC(O)C[N+](=O)[O-] (stereo not drawn)
inactive: [7] 96 % of control | [9] 100 % of control

Cc1ccc(/C(O)=C2/CC(C)(C)c3ccccc3C2=O)cc1
inactive: endpoint: mean survival time, dose: 100.0 mg/kg/injection, schedule: Q04DX003 (ip), vehicle: acetone 92 % of control | endpoint: mean survival time, dose: 200.0 mg/kg/injection, schedule: Q04DX003 (ip), vehicle: acetone 92 % of control | endpoint: mean survival time, dose: 400.0 mg/kg/injection, schedule: Q04DX003 (ip), vehicle: acetone 88 % of control

Cc1c([N+](=O)[O-])cc(C(C)(C)C)c(OC(=S)N(C)C)c1[N+](=O)[O-]
inactive: endpoint: mean survival time, dose: 6.25 mg/kg/injection, schedule: Q01DX009 (ip), vehicle: saline with Tween-80 93 % of control | endpoint: mean survival time, dose: 12.5 mg/kg/injection, schedule: Q01DX009 (ip), vehicle: saline with Tween-80 95 % of control | endpoint: mean survival time, dose: 25.0 mg/kg/injection, schedule: Q01DX009 (ip), vehicle: saline with Tween-80 89 % of control

ClCCN(CCCl)c1ccc(N=Nc2ccccc2)cc1
inactive: endpoint: mean survival time, dose: 100.0 mg/kg/injection, schedule: Q04DX003 (ip), vehicle: Klucel (hydroxypropylcellulose) (HPC) 102 % of control | endpoint: mean survival time, dose: 200.0 mg/kg/injection, schedule: Q04DX003 (ip), vehicle: Klucel (hydroxypropylcellulose) (HPC) 113 % of control | endpoint: mean survival time, dose: 400.0 mg/kg/injection, schedule: Q04DX003 (ip), vehicle: Klucel (hydroxypropylcellulose) (HPC) 113 % of control

O=C1NC(=O)C2(CCc3ccccc32)N1 (stereo not drawn)
inactive: [4] 110 % of control | [5] 98 % of control | [6] 96 % of control

COC(=O)C1C(=O)CC2N(C)C1C(C)(C)C2(C)C (stereo not drawn)
inactive: [10] 115 % of control | [11] 107 % of control

N#Cc1c(-c2ccccc2)c(-c2ccccc2)nn(CC(=O)O)c1=O
inactive: endpoint: median survival time, dose: 25.0 mg/kg/injection, schedule: Q01DX005 (ip), vehicle: distilled water + Tween-80 105 % of control | endpoint: median survival time, dose: 50.0 mg/kg/injection, schedule: Q01DX005 (ip), vehicle: distilled water + Tween-80 90 % of control | endpoint: median survival time, dose: 100.0 mg/kg/injection, schedule: Q01DX005 (ip), vehicle: distilled water + Tween-80 95 % of control | endpoint: median survival time, dose: 200.0 mg/kg/injection, schedule: Q01DX005 (ip), vehicle: distilled water + Tween-80 92 % of control

O=C1C=Cc2ccccc2/C1=C/c1nc(/C=C/c2ccccc2)oc1O
inactive: [10] 117 % of control | [11] 113 % of control | [12] 105 % of control

CCOC(=O)Nc1cc(Nc2ccccc2)c2[nH]cnc2n1
inactive: endpoint: mean survival time, dose: 12.5 mg/kg/injection, schedule: Q01DX001 (ip), vehicle: Klucel (hydroxypropylcellulose) (HPC) 96 % of control | endpoint: mean survival time, dose: 25.0 mg/kg/injection, schedule: Q01DX001 (ip), vehicle: Klucel (hydroxypropylcellulose) (HPC) 93 % of control | endpoint: mean survival time, dose: 50.0 mg/kg/injection, schedule: Q01DX001 (ip), vehicle: Klucel (hydroxypropylcellulose) (HPC) 93 % of control | endpoint: mean survival time, dose: 100.0 mg/kg/injection, schedule: Q01DX001 (ip), vehicle: Klucel (hydroxypropylcellulose) (HPC) 93 % of control | endpoint: mean survival time, dose: 200.0 mg/kg/injection, schedule: Q01DX001 (ip), vehicle: Klucel (hydroxypropylcellulose) (HPC) 95 % of control | endpoint: mean survival time, dose: 400.0 mg/kg/injection, schedule: Q01DX001 (ip), vehicle: Klucel (hydroxypropylcellulose) (HPC) 93 % of control

O=C(O)C(Cl)(c1ccccc1)C(Cl)c1ccccc1 (stereo not drawn)
inactive: [7] 94 % of control | [8] 100 % of control | [4] 101 % of control | [9] 98 % of control | [5] 101 % of control

COC(=O)c1cc2ccccc2o1
inactive: [8] 100 % of control | [4] 108 % of control | [9] 100 % of control | [5] 108 % of control | endpoint: mean survival time, dose: 400.0 mg/kg/injection, schedule: Q01DX009 (ip), vehicle: saline with Tween-80 105 % of control | [6] 94 % of control

COc1cc(C=Nc2ccc(-n3ccnc3C)cc2)ccc1N(CCCl)CCCl
inactive: endpoint: mean survival time, dose: 2.5 mg/kg/injection, schedule: Q01DX009 (ip), vehicle: saline with Tween-80 98 % of control | endpoint: mean survival time, dose: 5.0 mg/kg/injection, schedule: Q01DX009 (ip), vehicle: saline with Tween-80 113 % of control | endpoint: mean survival time, dose: 10.0 mg/kg/injection, schedule: Q01DX009 (ip), vehicle: saline with Tween-80 112 % of control | endpoint: mean survival time, dose: 20.0 mg/kg/injection, schedule: Q01DX009 (ip), vehicle: saline with Tween-80 117 % of control

Nc1cccc2cnccc12
inactive: [8] 100 % of control | [4] 91 % of control | [9] 98 % of control | [5] 93 % of control | [6] 96 % of control

CCN1/C(=C\c2ccc3cc(C)ccc3[n+]2CC)[Se]c2ccccc21
inactive: endpoint: mean survival time, dose: 1.25 mg/kg/injection, schedule: Q01DX001 (ip), vehicle: other 105 % of control | endpoint: mean survival time, dose: 2.5 mg/kg/injection, schedule: Q01DX001 (ip), vehicle: other 101 % of control | endpoint: mean survival time, dose: 5.0 mg/kg/injection, schedule: Q01DX001 (ip), vehicle: other 106 % of control

CCOC(=O)/C=C(\C)CO
inactive: [10] 88 % of control | [11] 103 % of control | [12] 103 % of control

O=C(CNC(=O)Nc1cccc([N+](=O)[O-])c1)NNC(=O)Nc1ccccc1F
inactive: [8] 88 % of control | [9] 88 % of control

O=C(C(Oc1ccc(Cl)cc1)Oc1ccc(Cl)cc1)N(O)c1ccccc1OCc1ccccc1
inactive: [4] 102 % of control | [5] 96 % of control | [6] 94 % of control

C[n+]1ccccc1C#N
inactive: endpoint: mean survival time, dose: 25.0 mg/kg/injection, schedule: Q01DX009 (ip), vehicle: saline sonified 102 % of control | endpoint: mean survival time, dose: 50.0 mg/kg/injection, schedule: Q01DX009 (ip), vehicle: saline sonified 102 % of control | [4] 95 % of control

CCC(C)C(=O)CN(C)C (stereo not drawn)
inactive: endpoint: mean survival time, dose: 100.0 mg/kg/injection, schedule: Q04DX003 (ip), vehicle: saline 100 % of control | endpoint: mean survival time, dose: 200.0 mg/kg/injection, schedule: Q04DX003 (ip), vehicle: saline 96 % of control

O=C(OC1(c2ccccc2)C2CCC1CC2)c1ccc([N+](=O)[O-])cc1 (stereo not drawn)
inactive: [2] 96 % of control | [3] 93 % of control | endpoint: mean survival time, dose: 50.0 mg/kg/injection, schedule: Q04DX002 (ip), vehicle: saline with Tween-80 101 % of control
